Earlier results, collected in patent publication US12378302B2, “Fusion molecules and uses thereof” (Foundation Medicine, Inc., priority 2012, dated 2025).
Where two headings read alike, the source gives them in different places.

Assays:
FKBP12 = FKBP12 (Homo sapiens, UniProt P62942); conditions: read-out: IC50 mTOR inhibitor of FKBP12
advanced cervical cancer = conditions: Phase 2, pazopanib arm compared to lapatinib therapy
[1] = system: early stage NSCLC patients; conditions: Phase 2 trial
[2] = system: advanced urothelial cancer; conditions: Phase 2, single agent
all four Fgfr kinases [3] = conditions: preclinical studies
all four Fgfr kinases [4] = system: all four Fgfr kinases
PDGFR = conditions: read-out: IC50 PDGFR
PI3Kγ = PI3Kγ (Homo sapiens, UniProt P48736); conditions: read-out: Ki PI3Kγ (p110γ)
Sequence of PI3Kγ (P48736 whole entry): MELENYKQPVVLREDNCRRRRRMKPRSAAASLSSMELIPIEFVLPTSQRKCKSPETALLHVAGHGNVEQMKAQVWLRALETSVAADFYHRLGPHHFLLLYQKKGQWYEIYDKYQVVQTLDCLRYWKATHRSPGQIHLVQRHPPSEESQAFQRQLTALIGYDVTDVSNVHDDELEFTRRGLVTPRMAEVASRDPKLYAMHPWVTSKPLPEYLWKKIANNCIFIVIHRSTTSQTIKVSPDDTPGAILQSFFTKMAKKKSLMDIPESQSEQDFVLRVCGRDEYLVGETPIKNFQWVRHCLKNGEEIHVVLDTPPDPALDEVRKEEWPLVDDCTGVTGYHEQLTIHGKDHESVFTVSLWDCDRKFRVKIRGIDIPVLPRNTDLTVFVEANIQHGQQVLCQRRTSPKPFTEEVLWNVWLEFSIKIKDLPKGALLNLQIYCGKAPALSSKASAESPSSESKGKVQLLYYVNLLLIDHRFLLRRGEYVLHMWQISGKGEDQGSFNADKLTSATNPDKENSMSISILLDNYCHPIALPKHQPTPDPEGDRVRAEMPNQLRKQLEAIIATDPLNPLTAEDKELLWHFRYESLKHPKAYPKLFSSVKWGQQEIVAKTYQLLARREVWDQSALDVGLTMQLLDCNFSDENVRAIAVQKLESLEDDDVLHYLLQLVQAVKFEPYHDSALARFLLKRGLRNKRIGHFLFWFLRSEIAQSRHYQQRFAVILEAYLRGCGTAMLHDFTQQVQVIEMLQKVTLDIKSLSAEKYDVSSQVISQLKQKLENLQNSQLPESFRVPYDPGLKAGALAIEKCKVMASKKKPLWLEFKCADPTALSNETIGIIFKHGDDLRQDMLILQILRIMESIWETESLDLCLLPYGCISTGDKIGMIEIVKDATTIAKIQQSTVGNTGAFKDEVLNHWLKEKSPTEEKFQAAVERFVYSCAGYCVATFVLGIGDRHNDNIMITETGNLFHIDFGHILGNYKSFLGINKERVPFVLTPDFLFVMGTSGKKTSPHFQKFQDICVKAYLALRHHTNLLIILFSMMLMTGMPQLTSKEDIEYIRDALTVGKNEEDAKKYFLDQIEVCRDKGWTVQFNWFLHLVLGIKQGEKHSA

[5] = system: Vps34, AKT, PDK1, p70S6K, MEK, ERK, p38, or JNK
[6] = system: cells expressing FGFR1 fusions
VEGFR-stimulated cells [7] = conditions: read-out: IC50 cell proliferation of VEGFR-stimulated cells
EGFR-stimulated HUVEC [8] = conditions: read-out: IC50 EGFR-stimulated HUVEC proliferation
EGFR-stimulated HUVEC [9] = conditions: read-out: IC50 EGFR-stimulated HUVEC proliferation; remark: listed apart in the source
MTC = conditions: randomized Phase 3, vandetanib compared to placebo
VEGFR-stimulated cells [10] = conditions: read-out: IC50 cell proliferation of VEGFR-stimulated cells; remark: listed apart in the source

Sequence of FKBP12 (P62942 whole entry): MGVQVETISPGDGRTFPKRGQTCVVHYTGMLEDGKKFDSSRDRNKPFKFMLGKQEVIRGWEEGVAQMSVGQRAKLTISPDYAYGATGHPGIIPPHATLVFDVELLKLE

Question: Which IC50 (FKBP12) does the source give for CO[C@H]1C[C@@H]2CC[C@@H](C)[C@@](O)(O2)C(=O)C(=O)N2CCCC[C@H]2C(=O)O[C@H]([C@@H](C)C[C@@H]2CC[C@@H](OCCO)[C@H](OC)C2)CC(=O)[C@H](C)/C=C(\C)[C@@H](O)[C@@H](OC)C(=O)C(C)C[C@H](C)/C=C/C=C/C=C/1C (stereo partly drawn) [Everolimus, 23,27-Epoxy-3H-pyrido[2,1-c][1,4]oxaazacyclohentriacontine, rapamycin deriv] here?
Answer: 1.6 to 2.4 nM

Question: Which “PFS and OS” value (advanced cervical cancer) does the source give for Cc1ccc(Nc2nccc(N(C)c3ccc4c(C)n(C)nc4c3)n2)cc1S(N)(=O)=O [pazopanib] here?
Answer: improved PFS and OS

Question: And the “patients who achieved partial response” value [1]?
Answer: 3 patients

Question: What about the “patients who experienced a reduction in tumor volume” value ([1]; 30/35) of the same molecule?
Answer: 86%

Question: And the Disease control rate [2]?
Answer: 51.2%

Question: And the “Partial responses (patients/enrolled)” value [2]?
Answer: 7/41

Question: And the “Stable disease (patients/enrolled)” value [2]?
Answer: 14/41

Question: Which results are given for Cc1ccc(C(=O)Nc2ccc(CN3CCN(C)CC3)c(C(F)(F)F)c2)cc1C#Cc1cnc2cccnn12 [ponatinib]?
Answer: activity against all four Fgfr kinases (all four Fgfr kinases [3]): substantial activity; activity against all four Fgfr kinases (all four Fgfr kinases [4]): substantial activity

Question: With Nc1ncnc2c1c(-c1cnc3[nH]ccc3c1)nn2C1CCCC1 [PP-121, 1-cyclopentyl-3-(1H-pyrrolo[2,3-b]pyridin-5-yl)-1H-pyrazolo[3,4-d]pyrimidin-4-amine] as the molecule, how does the IC50 (PDGFR) read?
Answer: 2 nM

Question: Which Ki (PI3Kγ) does the source give for COc1ncc(-c2ccc3nccc(-c4ccnnc4)c3c2)cc1NS(=O)(=O)c1ccc(F)cc1F [GSK2126458, 2,4-difluoro-N-(2-methoxy-5-(4-(pyridazin-4-yl)quinolin-6-yl)pyridin-3-yl)benzenesulfonamide] here?
Answer: 0.024 nM

Question: For COc1ccc(-c2cc3c(C)nc(N)nc3n([C@H]3CC[C@H](OCCO)CC3)c2=O)cn1 [PF-04691502, 2-amino-8-((1r,4r)-4-(2-hydroxyethoxy)cyclohexyl)-6-(6-methoxypyridin-3-yl)-4-methylpyrido[2,3-d]pyrimidin-7(8H)-one], which “activity against Vps34, AKT, PDK1, p70S6K, MEK, ERK, p38, or JNK” value [5] is on record?
Answer: little activity

Question: With Cc1nc(Nc2ncc(C(=O)Nc3c(C)cccc3Cl)s2)cc(N2CCN(CCO)CC2)n1 [dasatinib] as the molecule, how does the “sensitivity of cells expressing FGFR1 fusions” value [6] read?
Answer: sensitivity

Question: Which “effect on PI3Ks” value (PI3Ks) does the source give for COc1ccc(-c2ccc3c(N4CCOCC4)nc(N4C[C@@H](C)O[C@@H](C)C4)nc3n2)cc1CO [KU-0063794, (5-(2-((2R,6S)-2,6-dimethylmorpholino)-4-morpholinopyrido[2,3-d]pyrimidin-7-yl)-2-methoxyphenyl)methanol] here?
Answer: no effect

Question: With COc1cc2c(Nc3ccc(Br)cc3F)ncnc2cc1OCC1CCN(C)CC1 [vandetanib] as the molecule, how does the IC50 (VEGFR-stimulated cells [7]) read?
Answer: 60 nM

Question: What about the IC50 (EGFR-stimulated HUVEC [8]) of the same molecule?
Answer: 170 nM

Question: What about the IC50 (EGFR-stimulated HUVEC [9]) of the same molecule?
Answer: 170 nM

Question: What about the PFS (MTC) of the same molecule?
Answer: significant improvement in PFS

Question: What about the IC50 (VEGFR-stimulated cells [10]) of the same molecule?
Answer: 60 nM

Question: For O=C(c1ccc(/C=C/c2n[nH]c3ccccc23)cc1)N1CCNCC1 [KW-2449, (E)-(4-(2-(1H-indazol-3-yl)vinyl)phenyl)(piperazin-1-yl)methanone], which “effect on PDGFRβ, IGF-1R, EGFR” value (PDGFRβ, IGF-1R, EGFR) is on record?
Answer: little effect

Question: With Cn1c(=O)n(-c2ccc(C(C)(C)C#N)cc2)c2c3cc(-c4cnc5ccccc5c4)ccc3ncc21 [BEZ235, 2-methyl-2-(4-(3-methyl-2-oxo-8-(quinolin-3-yl)-2,3-dihydroimidazo[4,5-c]quinolin-1-yl)phenyl)propanenitrile] as the molecule, how does the “inhibition of Akt and PDK1” value (Akt and PDK1) read?
Answer: poor inhibitory
